Source: patent publication US7786083B2, “Metastin derivatives and use thereof” (Takeda Pharmaceutical Company Limited, priority 2006, dated 2010)
*1 amine or outer side, *2 acyl side, *3 side chain or, on linkers, in order; H or OH if unused. Where a SMILES comes first, the peptide text is derived from it. [ ]: non-standard residue; d: D form. Glyψ(E-CHCH)Leu = CC(C)C[C@H](/C=C/CN[*:1])C(=O)[*:2]; X5 = O=C(/C=C/[C@H](O)[C@H](Cc1ccccc1)N[*:1])[*:2]; X4 = O=C(CCC(=O)[*:2])[C@H](Cc1ccccc1)N[*:1]; X1 = CC(C)C[C@H](CCCN[*:1])C(=O)[*:2]; Arg(Me) = CNC(=N)NCCC[C@H](N)C(=O)O; Dap(CONH2) = NC(=O)NC[C@H](N)C(=O)O; Ala(cPr) = N[C@@H](CC1CC1)C(=O)O; Hyp = O=C(O)[C@@H]1C[C@@H](O)CN1; tBuAla = CC(C)(C)C[C@H](N)C(=O)O; Cha = N[C@@H](CC1CCCCC1)C(=O)O; Cba = N[C@@H](CC1CCC1)C(=O)O; Nva = CCC[C@H](N)C(=O)O

Tested on: metastin receptors
Test: Measurement of agonist activity by assaying changes in intracellular calcium ion level (FLIPR, Fluo-4 NW)
Type: cell-based, human
Details: specific activity of the EC50 of a test compound based on the EC50 of Metastin (45-54), metastin receptor expression CHO cells
Method in brief: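 CHO/dhfr⁻ cells stably expressing human or rat metastin receptor, seeded 3×10^4/well for 24 h, loaded with Fluo-4 NW 30 min at 37 °C in HBSS with 0.1% BSA, 20 mM HEPES pH 7.4 and 1 mM probenecid. Compound-stimulated intracellular calcium change read on FLIPR.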

Row | Compound | Specific Activity
1 | CNC(=N)NCCC[C@H](NC(=O)[C@H](CC(C)C)NC(=O)/C=C/[C@H](O)[C@H](Cc1ccccc1)NC(=O)[C@@H](NC(=O)[C@H](CC(N)=O)NC(=O)[C@@H]1C[C@@H](O)CN1C(=O)[C@@H](Cc1ccc(O)cc1)NC(C)=O)[C@@H](C)O)C(=O)N[C@@H](Cc1c[nH]c2ccccc12)C(N)=O [Compound No. 858, des(1)-Ac-[D-Tyr2,Hyp3,Thr5,Phe6Ψ((S)CHOH—(E)CH=)Gly7,Arg(Me)9,Trp10]MS10] (Ac-[dY][Hyp]NT[X5]L[Arg(Me)]W-NH2) | 1.7
2 | CNC(=N)NCCC[C@H](NC(=O)[C@H](CC1CC1)NC(=O)CNC(=O)[C@H](CC1CCCCC1)NC(=O)CNC(=O)[C@H](CNC(N)=O)NC(=O)[C@@H]1C[C@@H](O)CN1C(=O)[C@@H](Cc1ccc(O)cc1)NC(C)=O)C(=O)N[C@@H](Cc1c[nH]c2ccccc12)C(N)=O [Compound No. 949, des(1)-Ac-[D-Tyr2,Hyp3,Alb4,Gly5,Cha6,Ala(cPr)8,Arg(Me)9,Trp10]MS10] (Ac-[dY][Hyp][Dap(CONH2)]G[Cha]G[Ala(cPr)][Arg(Me)]W-NH2) | 0.7
3 | CNC(=N)NCCC[C@H](NC(=O)[C@@H](/C=C/CNC(=O)[C@H](Cc1ccccc1)NC(=O)[C@@H](NC(=O)[C@H](CC(N)=O)NC(=O)[C@H](CCC(=O)O)NC(=O)[C@@H](Cc1ccc(O)cc1)NC(C)=O)[C@@H](C)O)CC(C)C)C(=O)N[C@@H](Cc1c[nH]c2ccccc12)C(N)=O [Compound No. 907, des(1)-Ac-[D-Tyr2,Glu3,Thr5,Gly7Ψ((E)CH═CH)Leu8,Arg(Me)9,Trp10]MS10] (Ac-[dY]ENTF[Glyψ(E-CHCH)Leu][Arg(Me)]W-NH2) | 0.6
4 | CCC[C@H](NC(=O)CNC(=O)[C@H](CC1CCCCC1)NC(=O)[C@@H](NC(=O)[C@H](CC(N)=O)NC(=O)[C@H](CCC(=O)O)NC(=O)[C@@H](Cc1ccc(O)cc1)NC(C)=O)[C@@H](C)O)C(=O)N[C@@H](CCCNC(=N)NC)C(=O)N[C@@H](Cc1c[nH]c2ccccc12)C(N)=O [Compound No. 924, des(1)-Ac-[D-Tyr2,Glu3,Thr5,Cha6,Nva8,Arg(Me)9,Trp10]MS10] (Ac-[dY]ENT[Cha]G[Nva][Arg(Me)]W-NH2) | 0.4
5 | CNC(=N)NCCC[C@H](NC(=O)[C@H](CC(C)C)NC(=O)CCC(=O)[C@H](Cc1ccccc1)NC(=O)[C@@H](NC(=O)[C@H](CC(N)=O)NC(=O)[C@@H]1C[C@@H](O)CN1C(=O)[C@@H](Cc1ccc(O)cc1)NC(C)=O)[C@@H](C)O)C(=O)N[C@@H](Cc1c[nH]c2ccccc12)C(N)=O [Compound No. 851, des(1)-Ac-[D-Tyr2,Hyp3,Thr5,Phe6Ψ(COCH2)Gly7,Arg(Me)9,Trp10]MS10] (Ac-[dY][Hyp]NT[X4]L[Arg(Me)]W-NH2) | 1.1
6 | CNC(=N)NCCC[C@H](NC(=O)[C@H](CC(C)C)NC(=O)[C@@H](NC(=O)[C@H](Cc1ccccc1)NC(=O)[C@@H](NC(=O)[C@H](CC(N)=O)NC(=O)[C@@H]1C[C@@H](O)CN1C(=O)[C@@H](Cc1ccc(O)cc1)NC(C)=O)[C@@H](C)O)C(C)C)C(=O)N[C@@H](Cc1c[nH]c2ccccc12)C(N)=O [Compound No. 847, des(1)-Ac-[D-Tyr2,Hyp3,Thr5,Val7,Arg(Me)9,Trp10]MS10] (Ac-[dY][Hyp]NTFVL[Arg(Me)]W-NH2) | 1.7
7 | CNC(=N)NCCC[C@H](NC(=O)[C@H](CC1CC1)NC(=O)CNC(=O)[C@H](CC1CCCCC1)NC(=O)[C@@H](NC(=O)[C@H](CC(N)=O)NC(=O)[C@H](CCC(=O)O)NC(=O)[C@@H](Cc1ccc(O)cc1)NC(C)=O)[C@@H](C)O)C(=O)N[C@@H](Cc1c[nH]c2ccccc12)C(N)=O [Compound No. 895, des(1)-Ac-[D-Tyr2,Glu3,Thr5,Cha6,Ala(cPr)8,Arg(Me)9,Trp10]MS10] (Ac-[dY]ENT[Cha]G[Ala(cPr)][Arg(Me)]W-NH2) | 0.4
8 | CC(=O)N[C@H](Cc1ccc(O)cc1)C(=O)N1C[C@H](O)C[C@H]1C(=O)N[C@@H](CNC(N)=O)C(=O)N[C@H](C(=O)N[C@@H](CC1CCCCC1)C(=O)NC/C=C/[C@@H](CC(C)C)C(=O)N[C@@H](CCCNC(=N)N)C(=O)N[C@@H](Cc1c[nH]c2ccccc12)C(N)=O)[C@@H](C)O [Compound No. 927, des(1)-Ac-[D-Tyr2,Hyp3,Alb4,Thr5,Cha6,Gly7Ψ((E)CH═CH)Leu8,Trp10]MS10] (Ac-[dY][Hyp][Dap(CONH2)]T[Cha][Glyψ(E-CHCH)Leu]RW-NH2) | 0.5
9 | CNC(=N)NCCC[C@H](NC(=O)[C@@H](CCCNC(=O)[C@H](Cc1ccccc1)NC(=O)[C@@H](NC(=O)[C@H](CC(N)=O)NC(=O)[C@@H]1C[C@@H](O)CN1C(=O)[C@@H](Cc1ccc(O)cc1)NC(C)=O)[C@@H](C)O)CC(C)C)C(=O)N[C@@H](Cc1c[nH]c2ccccc12)C(N)=O [Compound No. 893, des(1)-Ac-[D-Tyr2,Hyp3,Thr5,Gly7Ψ((E)CH2CH2)Leu8,Arg(Me)9,Trp10]MS10] (Ac-[dY][Hyp]NTF[X1][Arg(Me)]W-NH2) | 0.8
10 | CNC(=N)NCCC[C@H](NC(=O)[C@H](CC(C)C)NC(=O)CNC(=O)[C@H](Cc1ccccc1)NC(=O)[C@@H](NC(=O)[C@H](CNC(N)=O)NC(=O)[C@@H]1C[C@@H](O)CN1C(=O)[C@@H](Cc1ccc(O)cc1)NC(C)=O)[C@@H](C)O)C(=O)N[C@@H](Cc1c[nH]c2ccccc12)C(N)=O [Compound No. 885, des(1)-Ac-[D-Tyr2,Hyp3,Alb4,Thr5,Arg(Me)9,Trp10]MS10] (Ac-[dY][Hyp][Dap(CONH2)]TFGL[Arg(Me)]W-NH2) | 0.5

The remaining lines, values ahead:

Row | Specific Activity | Compound
11 | 0.5 | CNC(=N)NCCC[C@H](NC(=O)[C@H](CC1CCC1)NC(=O)CNC(=O)[C@H](CC1CCCCC1)NC(=O)[C@@H](NC(=O)[C@H](CC(N)=O)NC(=O)[C@@H]1C[C@@H](O)CN1C(=O)[C@@H](Cc1ccc(O)cc1)NC(C)=O)[C@@H](C)O)C(=O)N[C@@H](Cc1c[nH]c2ccccc12)C(N)=O [Compound No. 946, des(1)-Ac-[D-Tyr2,Hyp3,Thr5,Cha6,Ala(cBu)8,Arg(Me)9,Trp10]MS10] (Ac-[dY][Hyp]NT[Cha]G[Cba][Arg(Me)]W-NH2)
12 | 1.9 | CNC(=N)NCCC[C@H](NC(=O)[C@H](CC(C)C)NC(=O)CNC(=O)[C@H](CC1CC1)NC(=O)[C@@H](NC(=O)[C@H](CC(N)=O)NC(=O)[C@@H]1C[C@@H](O)CN1C(=O)[C@@H](Cc1ccc(O)cc1)NC(C)=O)[C@@H](C)O)C(=O)N[C@@H](Cc1c[nH]c2ccccc12)C(N)=O [Compound No. 855, des(1)-Ac-[D-Tyr2,Hyp3,Thr5,Ala(cPr)6,Arg(Me)9,Trp10]MS10] (Ac-[dY][Hyp]NT[Ala(cPr)]GL[Arg(Me)]W-NH2)
13 | 0.5 | CNC(=N)NCCC[C@H](NC(=O)[C@H](CC1CC1)NC(=O)CNC(=O)[C@H](CC1CCCCC1)NC(=O)[C@@H](NC(=O)[C@H](CNC(N)=O)NC(=O)[C@@H]1C[C@@H](O)CN1C(=O)[C@@H](Cc1ccc(O)cc1)NC(C)=O)[C@@H](C)O)C(=O)N[C@@H](Cc1c[nH]c2ccccc12)C(N)=O [Compound No. 953, des(1)-Ac-[D-Tyr2,Hyp3,Alb4,Thr5,Cha6,Ala(cPr)8,Arg(Me)9,Trp10]MS10] (Ac-[dY][Hyp][Dap(CONH2)]T[Cha]G[Ala(cPr)][Arg(Me)]W-NH2)
14 | 1.4 | CNC(=N)NCCC[C@H](NC(=O)[C@H](CC(C)(C)C)NC(=O)CNC(=O)[C@H](CC1CCCCC1)NC(=O)[C@@H](NC(=O)[C@H](CC(N)=O)NC(=O)[C@@H]1C[C@@H](O)CN1C(=O)[C@@H](Cc1ccc(O)cc1)NC(C)=O)[C@@H](C)O)C(=O)N[C@@H](Cc1c[nH]c2ccccc12)C(N)=O [Compound No. 933, des(1)-Ac-[D-Tyr2,Hyp3,Thr5,Cha6,Leu(Me)8,Arg(Me)9,Trp10]MS10] (Ac-[dY][Hyp]NT[Cha]G[tBuAla][Arg(Me)]W-NH2)
